The subject of the data set is Escherichia coli (WP2 uvrA pKM101). In words: Bacterial mutation test, Escherichia coli. In kind it is cell-based. The conditions noted are these: up to 5000 μg/plate; absence and presence of S-9. On the procedure: These conditions included treatments at concentrations up to 5000 μg/plate (the maximum recommended concentration according to current regulatory guidelines), in the absence and in the presence of a rat liver metabolic activation system (S-9).

For 1 compound, Induction of mutation results are on record in patent publication US20250205200A1, “5-METHOXY-N,N-[…][…] THE TREATMENT OF […]” (GH RESEARCH IRELAND LIMITED, priority 2022, published 2025).

SMILES strings stand for the structures.

As to `COc1ccc2[nH]cc(CCN(C)C)c2c1` [5-MeO-DMT], the Induction of mutation entry is reported as “did not induce mutation”.
